Data taken from PMC12391581 (Antiviral Research, 2025).
Like-named read-outs stand apart in the source and are kept apart here.

Columns and labels:
[1] = tested on: B/Victoria-lineage viruses; type: cell-based
[2] = tested on: neuraminidase (NA) of B/Victoria-lineage viruses; type: biochemical, influenza B/Victoria-lineage virus
[3] = tested on: neuraminidase (NA) of A(H3N2) viruses; details: cited from earlier work
[4] = tested on: neuraminidase (NA) of B/Victoria-lineage viruses; details: cited from earlier work

Row | Structure (SMILES) | EC50 fold-change compared to reference median EC50 values [1] | NAI inhibition phenotype (NI/RI/HRI) [2] | NAI inhibition phenotype (NI/RI/HRI) [3] | NAI inhibition phenotype (NI/RI/HRI) [4]
1 | COC(=O)OCOc1c2n(ccc1=O)N([C@@H]1c3ccccc3SCc3c1ccc(F)c3F)[C@@H]1COCCN1C2=O [Baloxavir, baloxavir marboxil] | 3.09–7.93 fold |  |  | 
2 | CCOC(=O)C1=C[C@@H](OC(CC)CC)[C@H](NC(C)=O)[C@@H](N)C1 [Oseltamivir, oseltamivir] |  | RI (key: normal inhibition (NI) is a <5-fold increase in the NAI IC50; RI is a 5- to 50-fold increase; HRI is a >50-fold increase) |  | 
3 | CC(=O)N[C@H]1[C@H]([C@H](O)[C@H](O)CO)OC(C(=O)O)=C[C@@H]1N=C(N)N [Zanamivir, zanamivir] |  | RI (key: normal inhibition (NI) is a <5-fold increase in the NAI IC50; RI is a 5- to 50-fold increase; HRI is a >50-fold increase) | NI/RI | NI/RI
